Data reported in patent US20170137387A1, “PHARMACOLOGICALLY ACTIVE QUINAZOLINEDIONE DERIVATIVES” (ORION CORPORATION, priority 2014, published 2017).

Experiments:
[1] = target: T1, human GABAB1 and GABAB2 receptor subunits (Homo sapiens, UniProt O75899+Q9UBS5); experiment: Agonism and positive allosteric modulator pharmacology in vitro, two-addition FLIPR calcium assay; type: cell-based; conditions: CHO cells co-expressing Galpha16; for IA (GABAB agonism): agonism efficacy at 30 μM / GABA efficacy at 30 μM; for IA (GABAB positive allosteric modulation): positive allosteric modulator efficacy at 10 μM (with EC10.5 GABA) / GABA efficacy at 30 μM
T1 construct: expressed in transfected cells; host or cells: CHO cells
Description: (§1) CHO cells expressing the human GABAB1 and GABAB2 receptor subunits co-expressing promiscuous Galpha16 proteins to force couple the receptor to the intracellular calcium signalling pathway were used to study GABAB pharmacology in vitro. The cells were maintained at 37° C. in a 5% CO2 95% air atmosphere in HAM F-12 medium supplemented with 10% foetal bovine serum and selection antibiotics.
(§2) The day before the experiment the cells were detached and plated into black-walled clear bottom 384-well plates at a cell density of 20 000 cells per well. The growth medium was removed and the cells were incubated with FLIPR Calcium 5 Assay reagent (Molecular Devices, CA, USA) diluted 1:1 in Probenecid-Ringer for 1 h at 37° C. in dark. Probenecid-Ringer buffer consisted of 150 mM NaCl, 3 mM KCl, 1.2 mM MgCl2, 1 mM CaCl2, 5 mM glucose, 20 mM 2-(4-(2-hydroxyethyl)piperazin-1-yl)ethanesulfonic acid (HEPES), and 2.5 mM Probenecid (pH 7.4 adjusted with 1.0 M NaOH and osmolarity adjusted to […]). Compounds were dissolved in Probenecid-Ringer. […] The samples were excited at 470-495 nm and emission was detected at 515-575 nm. All experiments were performed at 37° C.
A two-addition protocol was used to determine agonism and positive allosteric modulator pharmacology in the same assay using a kinetic read out. Agonism pharmacology of compounds was studied in the first addition in the concentration range 0.123-30 μM in quadruplicate at each concentration. In the second addition, a low (EC10.5) concentration of GABA was applied to detect the positive allosteric modulator pharmacology of the compounds to be studied. The EC10.5 concentration was determined from the GABA EC50 value using the formula ECF≈(F/(100-F))^1/H·EC50, wherein F is the fraction of full response and H is Hill slope.
(§3) Baseline fluorescence minimum was subtracted from maximum for the calculation of agonism and positive allosteric modulator pharmacology. Both in the agonism mode and in the allosteric mode, the efficacy was related to the intrinsic activity (IA) of the endogenous agonist GABA at 30 μM (positive allosteric modulator efficacy at 10 μM/GABA efficacy or agonism efficacy at 30 μM/GABA efficacy). To determine potentiation of GABA dose-response, the compounds, at a concentration of 10 μM diluted in Probenecid-Ringer, were added by FLIPR tetra followed by addition of GABA (diluted in water in the concentration range 0.123-10 μM). The EC50 values were determined using a four-parameter logistic fit (model 205 in ActivityBase XE). The EC50 value of GABA was divided with the EC50 value of GABA in the presence of positive allosteric modulator to determine potentiation of GABA dose-response EC50 value.

[2] = target: T1, human GABAB1 and GABAB2 receptor subunits; experiment: Potentiation of GABA dose-response, FLIPR calcium assay; type: cell-based; conditions: compound at 10 μM; EC50 of GABA divided by EC50 of GABA in the presence of positive allosteric modulator
Description: as §1, §2, §3

T1 sequence (Q9UBS5 15-961 limits assumed): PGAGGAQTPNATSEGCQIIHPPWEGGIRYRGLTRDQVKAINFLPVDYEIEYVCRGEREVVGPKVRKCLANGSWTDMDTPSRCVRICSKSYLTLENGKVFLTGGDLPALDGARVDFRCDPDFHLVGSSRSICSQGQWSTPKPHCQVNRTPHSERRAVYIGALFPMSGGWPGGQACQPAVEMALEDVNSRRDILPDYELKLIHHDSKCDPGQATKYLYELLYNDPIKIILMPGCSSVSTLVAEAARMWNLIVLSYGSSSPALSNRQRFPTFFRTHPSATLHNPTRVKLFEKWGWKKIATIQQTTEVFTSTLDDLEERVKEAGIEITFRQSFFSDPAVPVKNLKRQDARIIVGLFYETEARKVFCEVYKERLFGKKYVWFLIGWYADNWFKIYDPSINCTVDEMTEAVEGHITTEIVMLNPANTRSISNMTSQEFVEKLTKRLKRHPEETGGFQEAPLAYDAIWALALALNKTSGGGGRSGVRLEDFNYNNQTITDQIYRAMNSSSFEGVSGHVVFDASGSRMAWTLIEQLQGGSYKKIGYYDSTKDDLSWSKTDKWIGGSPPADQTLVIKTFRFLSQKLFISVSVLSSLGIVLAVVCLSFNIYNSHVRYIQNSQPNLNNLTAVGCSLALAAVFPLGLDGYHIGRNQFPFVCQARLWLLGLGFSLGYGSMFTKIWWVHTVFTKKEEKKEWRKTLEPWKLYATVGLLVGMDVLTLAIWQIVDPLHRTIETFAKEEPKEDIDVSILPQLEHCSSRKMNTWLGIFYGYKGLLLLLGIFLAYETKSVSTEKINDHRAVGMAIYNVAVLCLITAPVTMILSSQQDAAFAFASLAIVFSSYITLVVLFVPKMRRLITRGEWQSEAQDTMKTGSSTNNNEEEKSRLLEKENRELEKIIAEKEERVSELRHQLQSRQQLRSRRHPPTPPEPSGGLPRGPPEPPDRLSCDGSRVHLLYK
T1 sequence (O75899 42-941): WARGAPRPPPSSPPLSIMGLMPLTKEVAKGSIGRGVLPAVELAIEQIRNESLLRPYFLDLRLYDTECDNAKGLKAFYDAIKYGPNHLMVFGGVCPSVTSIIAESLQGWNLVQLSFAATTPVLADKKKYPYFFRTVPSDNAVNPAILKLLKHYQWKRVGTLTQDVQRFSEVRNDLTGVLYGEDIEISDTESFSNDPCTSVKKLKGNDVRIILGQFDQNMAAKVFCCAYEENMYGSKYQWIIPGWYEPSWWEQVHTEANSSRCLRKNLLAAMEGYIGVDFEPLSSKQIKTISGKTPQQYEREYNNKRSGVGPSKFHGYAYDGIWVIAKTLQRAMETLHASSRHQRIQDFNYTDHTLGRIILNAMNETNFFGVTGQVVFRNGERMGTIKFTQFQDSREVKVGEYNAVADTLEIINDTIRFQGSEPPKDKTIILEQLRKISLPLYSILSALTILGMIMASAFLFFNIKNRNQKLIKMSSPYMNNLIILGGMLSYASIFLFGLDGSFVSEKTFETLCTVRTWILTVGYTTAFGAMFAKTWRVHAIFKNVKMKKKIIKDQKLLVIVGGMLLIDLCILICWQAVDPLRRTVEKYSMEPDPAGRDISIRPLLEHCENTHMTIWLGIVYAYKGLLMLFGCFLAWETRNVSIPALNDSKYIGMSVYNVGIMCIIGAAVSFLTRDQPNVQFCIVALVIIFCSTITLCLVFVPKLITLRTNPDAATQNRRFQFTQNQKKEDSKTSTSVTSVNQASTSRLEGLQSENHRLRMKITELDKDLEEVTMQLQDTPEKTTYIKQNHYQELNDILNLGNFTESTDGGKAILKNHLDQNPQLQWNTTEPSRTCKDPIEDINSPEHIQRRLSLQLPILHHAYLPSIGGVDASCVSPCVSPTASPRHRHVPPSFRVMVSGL

| IA (GABAB agonism) [1] | IA (GABAB positive allosteric modulation) [1] | Potentiation of GABA (fold) [2] [fold] | SMILES |
| --- | --- | --- | --- |
| 0.19 | 0.89 | 42.6 | CC(C)(O)Cn1c(=O)n(Cc2ccc(Cl)cc2)c(=O)c2cc(Cl)cc(F)c21 [Example 131, 6-Chloro-3-(4-chlorobenzyl)-8-fluoro-1-(2-hydroxy-2-methylpropyl)quinazoline-2,4(1H,3H)-dione] |
| 0.05 | 0.64 | 19.7 | C[C@H](c1ccc(Cl)cc1)n1c(=O)c2ccc(Cl)cc2n(CC2(C)COC2)c1=O [Example 137, (R)-7-Chloro-3-(1-(4-chlorophenyl)ethyl)-1-((3-methyloxetan-3-yl)methyl)quinazoline-2,4(1H,3H)-dione] |
